{"source": "patent US9351966B2", "about": "“Composition comprising a combination of omeprazole and lansoprazole, and a buffering agent, and methods of using same” (The Curators of the University of Missouri, priority 2008, dated 2016)", "key": {"[1]": {"details": "cited from earlier work; for t1/2: Table 1, daily dose 15-160 mg as listed; for half-life of elimination, normal, mean: drug given alone; for mean plasma elimination half-life: healthy adults, clinical studies"}, "[2]": {"details": "clinical trials; Zegerid (omeprazole) and Prevacid (lansoprazole) package inserts; cited from earlier work"}, "[3]": {"assay": "Cross-over study, blood draws: AUC and half-life of PPI", "type": "in vivo, human", "details": "for prolongation factor of elimination half-life: omeprazole and lansoprazole administered together versus normal", "protocol": "(§1) A study was performed as a cross-over design, with washout between doses. The subject received the test article after placing a Bravo pH probe in the stomach and verifying its placement with pH readings of less than 2. After a baseline evaluation, to ensure that the pH probe is in the correct place for reading gastric acid in the stomach, the subject has an intravenous access established and a baseline blood draw was taken to provide evidence of a lack of PPI in the blood at baseline. The subject received the one of three different formulations, and the time of administration was noted. Blood draws were taken at intervals to characterize the absorption, distribution and elimination phases of the test article. […] Continuous gastric pH recording was made utilizing the Bravo pH probe and radiofrequency receiver. Gastric pH values were recorded every 10 seconds.\nas §1, with “eighteen” for “three”"}, "[4]": {"tested_on": "2C19 and 3A4 isoforms of the Cytochrome P450 enzyme", "details": "liver; cited from earlier work"}, "[5]": {"tested_on": "Barrett's esophagus", "details": "extended treatment (years), twice per day or more, with or without surgery; cited from earlier work"}, "[6]": {"details": "rats; drug or its metabolites; cited from earlier work"}, "[7]": {"tested_on": "intragastric acidity", "details": "after a single dose of PPI (Day 1); 20 mg delayed release; cited from earlier work"}}, "data": [{"smiles": "COc1ccnc(C[S+]([O-])c2nc3ccc(OC(F)F)cc3[nH]2)c1OC", "note": "(stereo not shown) [Pantoprazole]", "values": [{"measurement": "t1/2", "setting": "[1]", "result": "1.2 to 1.5", "unit": "h"}]}, {"smiles": "Cc1c(OCC(F)(F)F)ccnc1C[S+]([O-])c1nc2ccccc2[nH]1", "note": "(stereo not shown) [Lansoprazole]", "values": [{"measurement": "Adverse effect: Abdominal pain", "setting": "[2]", "result": "2.1 % of patients"}, {"measurement": "Adverse effect: Asthenia", "setting": "[2]", "result": "<1 % of patients"}, {"measurement": "Adverse effect: Constipation", "setting": "[2]", "result": "1.0 % of patients"}, {"measurement": "Adverse effect: Diarrhea", "setting": "[2]", "result": "3.8 % of patients"}, {"measurement": "Adverse effect: Headache", "setting": "[2]", "result": "<1 % of patients"}, {"measurement": "half-life", "setting": "[3]; human, blood, oral, omeprazole and lansoprazole together, e.g. 80 mg lansoprazole+80 mg omeprazole+1680 mg sodium bicarbonate, read-out: elimination half-life when administered together (converted)", "result": 3.7, "unit": "h"}, {"measurement": "prolongation factor of elimination half-life", "setting": "[3]", "result": 300, "unit": "%"}, {"measurement": "metabolism by Cytochrome P450 isoforms", "setting": "[4]", "result": "approximately equal amounts by both the 2C19 and 3A4 isoforms"}, {"measurement": "t1/2", "setting": "[1]", "result": "1 to 1.5", "unit": "h"}, {"measurement": "half-life of elimination, normal, mean", "setting": "[1]", "result": "approximately 1.2 hrs"}, {"measurement": "mean plasma elimination half-life", "setting": "[1]", "result": "about 1.5 hours"}, {"measurement": "patients with reversal of Barrett's esophagus", "setting": "[5]", "result": "3 of 123"}, {"measurement": "excretion in breast milk", "setting": "[6]", "result": "excreted in breast milk"}]}, {"smiles": "Cc1c(OCC(F)(F)F)ccnc1C[S@@+]([O-])c1nc2ccccc2[nH]1", "note": "[Dexlansoprazole]", "values": [{"measurement": "t1/2", "setting": "[1]", "result": "1 to 1.6", "unit": "h"}]}, {"smiles": "COc1ccc2[nH]c([S+]([O-])Cc3ncc(C)c(OC)c3C)nc2c1", "note": "(stereo not shown) [Omeprazole, 5-methoxy-2-[[(4-methoxy-3,5-dimethyl-2-pyridinyl)methyl]sulfinyl]-1H benzimidazole]", "values": [{"measurement": "Adverse effect: Abdominal pain", "setting": "[2]", "result": "5.2 % of patients"}, {"measurement": "Adverse effect: Asthenia", "setting": "[2]", "result": "1.3 % of patients"}, {"measurement": "Adverse effect: Constipation", "setting": "[2]", "result": "1.5 % of patients"}, {"measurement": "Adverse effect: Diarrhea", "setting": "[2]", "result": "3.7 % of patients"}, {"measurement": "Adverse effect: Headache", "setting": "[2]", "result": "2.9 % of patients"}, {"measurement": "prolongation factor of elimination half-life", "setting": "[3]", "result": 200, "unit": "%"}, {"measurement": "elimination half-life when administered together", "setting": "[3]; omeprazole and lansoprazole together, e.g. 80 mg lansoprazole+80 mg omeprazole+1680 mg sodium bicarbonate", "result": 1.9, "unit": "h"}, {"measurement": "metabolism by Cytochrome P450 isoforms", "setting": "[4]", "result": "mostly by the 2C19 isoform"}, {"measurement": "IGA-24Day 1", "setting": "[7]", "result": 640, "unit": "mmol·h/L"}, {"measurement": "t1/2", "setting": "[1]", "result": "0.9 to 1.5", "unit": "h"}, {"measurement": "half-life of elimination, normal, mean", "setting": "[1]", "result": "approximately 0.95 hrs"}, {"measurement": "mean plasma elimination half-life", "setting": "[1]", "result": "less than 1 hours"}, {"measurement": "patients with reversal of Barrett's esophagus", "setting": "[5]", "result": "3 of 123"}]}, {"smiles": "COc1ccc2nc([S@@+]([O-])Cc3ncc(C)c(OC)c3C)[nH]c2c1", "note": "[Esomerprazole]", "values": [{"measurement": "t1/2", "setting": "[1]", "result": "1.1 to 1.6", "unit": "h"}]}, {"smiles": "COc1ccc2[nH]c([S+]([O-])Cc3ncc(C)c(OC)c3C)nc2n1", "note": "(stereo not shown) [Tentaoprazole, 5-methoxy-2-[[(4-methoxy-3,5-dimethyl-2-pyridyl)methyl]sulfinyl]imidazo[4,5-b]pyridine]", "values": [{"measurement": "t1/2", "setting": "[1]", "result": "6.8 to 8", "unit": "h"}]}, {"smiles": "COCCCOc1ccnc(C[S+]([O-])c2nc3ccccc3[nH]2)c1C", "note": "(stereo not shown) [Rabeprazole]", "values": [{"measurement": "t1/2", "setting": "[1]", "result": "0.8 to 1", "unit": "h"}]}]}
